# Results: publication PMC7157825, “Romo1-Derived Antimicrobial Peptide Is a New Antimicrobial Agent against Multidrug-Resistant Bacteria in a Murine Model of Sepsis” (mBio, 2020)
# Where no end group is shown, it is not given here.
# Tests used:
# S. aureus (ATCC 29213) [1] = assay type: cell-based, Staphylococcus aureus; conditions: ATCC 29213, 1 h, pH 7.4
# Experimental: (§1) The minimum bactericidal concentration was determined as previously described with minor modifications ([29]). Briefly, bacteria (5 × 10^5 CFU/ml) in 10 mM phosphate buffer (pH 7.4) with a 1% volume of TS broth were incubated with various peptide dilutions in a 96-well plate. After incubation for 1 h, samples were placed on TS agar plates and incubated overnight at 37°C. The peptide concentration at which no colonies were identified on the plate was determined to be the MBC.
# [2] = tested on: P. aeruginosa (ATCC 27853); assay type: cell-based, Pseudomonas aeruginosa; conditions: ATCC 27853, 1 h, pH 7.4
# Experimental: as §1
# [3] = CF release from CF-encapsulated large unilamellar vesicles; conditions: 1 μg/ml of peptide; fluorescence; compared with melittin, magainin 2, daptomycin
# Experimental: Portions (10 μl) of the lipid mixture of E. coli total lipid extract were dried and rehydrated with 50 mM CF, 100 mM sucrose, and 5 mM HEPES/KOH (pH 7.4). Multilamellar liposomal suspensions were extruded with a 0.1-μm polycarbonate membrane using an Avanti Mini Extruder and purified by a PD-10 column (GE Healthcare, Buckinghamshire, United Kingdom) as previously described. The peptides were added to LUVs, and CF leakage was measured using Fluroskan Ascent FL (Thermo Labsystems, UK) in external buffer (150 mM KCl and 10 mM HEPES/Tris; pH 7). CF leakage was calculated using the following formula: CF leakage (%) = 100 × (F – F0)/(Fmax – F0), where F is the measured fluorescence intensity, F0 is the basal LUV fluorescence intensity, and Fmax is the fluorescence intensity of LUVs treated with 0.2% Triton X-100.
# CRPA = test: Murine model of sepsis caused by MDR bacteria; assay type: in vivo, mouse; conditions: for increase of survival rate: 8 × 10^7 CFU iv, AMPR-11 10 mg/kg iv single dose, imipenem 10 mg/kg ip four times q12h, 15 mice/group
# [4] = Effect of blood components on antimicrobial activity; assay type: in vitro ADME; conditions: mouse RBCs, human LDL, human HDL, bovine serum albumin; incubated for indicated times, then bacteria 1 h; CFU assay
# [5] = Functional half-life of antimicrobial activity in mouse plasma; assay type: in vitro ADME; conditions: 75% PBS and 25% mouse plasma (EDTA separation); pre-incubation 0, 5, 15, 30, 45, 60, or 75 min, then P. aeruginosa or S. aureus for 1 h; read-out CFU assay (antimicrobial activity)
# [6] = tested on: P. aeruginosa (ATCC 27853); test: Murine model of sepsis; assay type: in vivo, mouse
# [7] = tested on: K. pneumoniae (ATCC 13883); test: Murine model of sepsis; assay type: in vivo, mouse
# S. aureus (ATCC 29213) [8] = test: Murine model of sepsis; assay type: in vivo, mouse
# [9] = Functional half-life of antimicrobial activity in human serum; assay type: in vitro ADME; conditions: human serum (H4522; Sigma-Aldrich); pre-incubation 0, 5, 15, 30, 45, 60, or 75 min, then P. aeruginosa or S. aureus for 1 h; read-out CFU assay (antimicrobial activity)
# CRKP = test: Murine model of sepsis caused by MDR bacteria; assay type: in vivo, mouse; conditions: 8 × 10^8 CFU iv; AMPR-11 10 mg/kg iv single dose; imipenem 10 mg/kg ip four times q12h; 15 mice/group
# S. pneumoniae = assay type: cell-based; conditions: 1 h, pH 7.4
# Experimental: as §1
# [10] = tested on: Vancomycin-resistant E. faecium; assay type: cell-based, Enterococcus faecium; conditions: 1 h, pH 7.4
# Experimental: as §1
# [11] = Protein lipid overlay (PLO) assay; assay type: binding; conditions: TAMRA-AMPR-11 2 μg/ml, 2 h; 20 pmol of each lipid (PC, PG, PS, PE, PA, PI, lipid A, CL) on nitrocellulose
# Experimental: The experiment was performed as previously described ([53]) with minor modifications. The lipid of PC, PG, PS, PE, PA, PI, lipid A, or CL was diluted and placed on the supported nitrocellulose membrane at 20 pmol and dried at room temperature. The membrane was blocked with Tris-buffered saline-Tween 20 (TBS-Tween 20, 50 mM Tris-HCl, 150 mM NaCl, and 0.1% Tween 20) containing 0.2% fatty acid-free bovine albumin for 1 h. After several washes in TBS, the membrane was incubated with TAMRA-AMPR-11 at 2 μg/ml in blocking solution for 2 h. After several washes with TBS-Tween 20, the fluorescent signal was detected using a fluorescent image scanner (Typhoon FLA 9500).
# GFP-expressing EIEC = test: GFP efflux / permeabilization of GFP-expressing EIEC; assay type: cell-based, Enteroinvasive Escherichia coli
# Experimental: Flow cytometric assay to measure the efflux of GFP from GFP-expressing EIEC was performed using a FACS Canto II (Biosciences, CA). […] The number of internalized EIEC in HeLa cells (pcDNA 3.1 or pcDNA 3.1-Flag-Romo1/Control siRNA, Romo1 siRNA-1, or Romo1 siRNA-2) was measured using CFDA-stained EIEC. The data were measured and analyzed with FlowJo software (Tree Star, Inc., Ashland, OR).
# CRAB = test: Murine model of sepsis caused by MDR bacteria; assay type: in vivo, mouse; conditions: 5 × 10^8 CFU iv; AMPR-11 10 mg/kg iv single dose; imipenem 10 mg/kg ip four times q12h; 15 mice/group
# MRSA = test: Murine model of sepsis caused by MDR bacteria; assay type: in vivo, mouse; conditions: for increase of survival rate: 3 × 10^8 CFU iv, AMPR-11 10 mg/kg iv single dose, imipenem 10 mg/kg ip four times q12h, 15 mice/group
# [12] = tested on: A. baumannii (ATCC 19606); test: Murine model of sepsis; assay type: in vivo, mouse
# C57BL/6 mouse = test: Single-dose safety in mice; conditions: single dose 100 mg/kg intravenously; tracked for 15 days; compared to PBS
# Mouse RBCs = assay type: cell-based
# Experimental: Mouse RBCs were rinsed several times with PBS and centrifuged for 10 min at 2,000 rpm. […] After incubating for 1 h, the cells were pelleted at 1,000 × g for 10 min, and the absorbance of the supernatant was measured at 570 nm. The OD of the control was that of PBS (blank), and 1% Triton X-100 was used as the positive control.
# [13] = tested on: Vancomycin-resistant S. aureus; assay type: cell-based, Staphylococcus aureus; conditions: 1 h, pH 7.4
# Experimental: as §1
# EIEC = EIEC growth by spectrophotometry; assay type: cell-based, Enteroinvasive Escherichia coli; conditions: 1 μg/ml of Romo1 protein
# [14] = peptides iv 1 h after infection, tail vein blood 1 h after peptide administration
# [15] = mouse blood after 48 h of infection, 10 mg/kg iv single dose
molecule,measurement,setting,value
MMQSGGTFGTFMAIGMGIRC [M60-C79],MBC value S. aureus,S. aureus (ATCC 29213) [1],> 300 µg/mL
same,MBC value P. aeruginosa,[2],> 300 µg/mL
KTMMQSGGTFGTFMAIGM [K58-M75],MBC value S. aureus,S. aureus (ATCC 29213) [1],300 µg/mL
same,MBC value P. aeruginosa,[2],300 µg/mL
KTMMQSGGTFGTFMAIGMGIRC [K58-C79],MBC value S. aureus,S. aureus (ATCC 29213) [1],150 µg/mL
same,MBC value P. aeruginosa,[2],130 µg/mL
GGIGKTMMQSGGTFGTFMAIGMGIR [G54-R78],MBC value S. aureus,S. aureus (ATCC 29213) [1],300 µg/mL
same,MBC value P. aeruginosa,[2],300 µg/mL
IGKTMMQSGGTFGTFMAIGMGIRC [I56-C79],MBC value S. aureus,S. aureus (ATCC 29213) [1],300 µg/mL
same,MBC value P. aeruginosa,[2],300 µg/mL
LMGGIGKTMMQSGGTFGTFMAIGMGIR [L52-R78],MBC value S. aureus,S. aureus (ATCC 29213) [1],300 µg/mL
same,MBC value P. aeruginosa,[2],300 µg/mL
KTMMQSGGTFGTFMAIGMGI [K58-I77],MBC value S. aureus,S. aureus (ATCC 29213) [1],300 µg/mL
same,MBC value P. aeruginosa,[2],300 µg/mL
KTMMQSGGTFGTFMAIGMG [K58-G76],MBC value S. aureus,S. aureus (ATCC 29213) [1],300 µg/mL
same,MBC value P. aeruginosa,[2],300 µg/mL
KTMMQSGGTFGTFMAIGMGIR [AMPR-11],CF release,[3],to a similar extent as melittin
same,increase of survival rate,CRPA,> 60%
same,antimicrobial activity in blood (CFU counts) compared with known AMPs,CRPA; [14],"statistically better than that of magainin 2, LL-37, or daptomycin"
same,antimicrobial activity after incubation with blood components,[4],"not inhibited by RBCs, LDL, HDL, or albumin"
same,functional half-life in plasma,[5],approximately 50 min
same,increase of survival rate,"[6]; C57BL/6N mice, 2 × 10^7 CFU iv, AMPR-11 10 mg/kg iv single dose 1 h after infection, 20 mice/group, 15 days",> 60%
same,bacterial load in blood,[6]; [15],decrease in the bacterial load in blood
same,increase of survival rate,"[7]; C57BL/6N mice, 8 × 10^8 CFU iv, AMPR-11 10 mg/kg iv single dose 1 h after infection, 15 mice/group, 15 days",> 60%
same,bacterial load in blood,[7]; [15],decrease in the bacterial load in blood
same,bacterial load in blood over time,"S. aureus (ATCC 29213) [8]; AMPR-11 administered immediately after infection, tail vein blood, CFU relative to PBS group",rapidly decreased the bacterial load in blood
same,increase of survival rate,"S. aureus (ATCC 29213) [8]; C57BL/6N mice, 1 × 10^8 CFU iv, AMPR-11 10 mg/kg iv single dose 1 h after infection, 20 mice/group, 15 days",> 60%
same,bacterial load in blood,S. aureus (ATCC 29213) [8]; [15],decrease in the bacterial load in blood
same,functional half-life in serum,[9],~40 min
same,increase of survival rate,CRKP,> 60%
same,MBC value S. pneumoniae,S. pneumoniae,100 µg/mL
same,MBC value Vancomycin-resistant E. faecium,[10],100 µg/mL
same,lipid preference (binding),[11],specifically bound to lipid A and cardiolipin (CL)
same,time to kill bacteria,"GFP-expressing EIEC; Fig. 2E, TAMRA-AMPR-11 with GFP-expressing EIEC",≤ 10 min
same,increase of survival rate,CRAB,> 60%
same,increase of survival rate,MRSA,> 60%
same,"bacterial load in the liver, spleen, and kidney","MRSA; CFU assay of organ homogenates, 10 mg/kg iv single dose","decrease in bacterial load in the liver, spleen, and kidney"
same,antimicrobial activity in blood (CFU counts) compared with known AMPs,MRSA; [14],"statistically better than that of magainin 2, LL-37, or daptomycin"
same,increase of survival rate,"[12]; C57BL/6N mice, 4 × 10^8 CFU iv, AMPR-11 10 mg/kg iv single dose 1 h after infection, 15 mice/group, 15 days",> 60%
same,bacterial load in blood,[12]; [15],decrease in the bacterial load in blood
same,"clinical signs (death, weight loss)",C57BL/6 mouse,no severe clinical signs such as death or weight loss
same,hemolytic activity,Mouse RBCs,less cytotoxicity (Fig. 4A) and hemolytic activity (Fig. 4B) than magainin 2 and daptomycin
same,MBC value Vancomycin-resistant S. aureus,[13],120 µg/mL
GKTMMQSGGTFGTFMAIGMGIR [G57-R78],MBC value S. aureus,S. aureus (ATCC 29213) [1],300 µg/mL
same,MBC value P. aeruginosa,[2],280 µg/mL
"C[C@@H](O)[C@H]1C(=O)N2C(C(=O)O)=C(SCCN=CN)C[C@H]12 [imipenem, reference compound]",increase of survival rate,CRPA,of little effectiveness
same,increase of survival rate,CRKP,of little effectiveness
same,increase of survival rate,CRAB,of little effectiveness
same,increase of survival rate,MRSA,of little effectiveness
LMGGIGKTMMQSGGTFGTFMAIGMGIRC [L52-C79],MBC value S. aureus,S. aureus (ATCC 29213) [1],300 µg/mL
same,MBC value P. aeruginosa,[2],300 µg/mL
IGKTMMQSGGTFGTFMAIGMGIR [I56-R78],MBC value S. aureus,S. aureus (ATCC 29213) [1],300 µg/mL
same,MBC value P. aeruginosa,[2],300 µg/mL
MMQSGGTFGTFMAIGMGIR [M60-R78],MBC value S. aureus,S. aureus (ATCC 29213) [1],300 µg/mL
same,MBC value P. aeruginosa,[2],300 µg/mL
GKTMMQSGGTFGTFMAIGMGIRC [G57-C79],MBC value S. aureus,S. aureus (ATCC 29213) [1],280 µg/mL
same,MBC value P. aeruginosa,[2],250 µg/mL
GGIGKTMMQSGGTFGTFMAIGMGIRC [G54-C79],MBC value S. aureus,S. aureus (ATCC 29213) [1],300 µg/mL
same,MBC value P. aeruginosa,[2],300 µg/mL
"Romo1: reactive oxygen species modulator 1, chemically synthesized, dissolved in 75% trifluoroethanol (peptide, UniProt P60602 2-79, looked up) Reactive oxygen species …: PVAVGPYGQSQPSCFDRVKMGFVMGCAVGMAAGALFGTFSCLRIGMRGRELMGGIGKTMMQSGGTFGTFMAIGMGIRC",GFP efflux,"GFP-expressing EIEC; 100 nM Romo1, flow cytometry",induced green fluorescent protein (GFP) efflux
same,bacterial growth,EIEC,inhibited EIEC growth
